# Source: patent US9242966B2, “Phthalazines as potassium ion channel inhibitors” (BRISTOL-MYERS SQUIBB COMPANY, priority 2013, dated 2016)
# System: not listed separately
# Experiment: Rat PO PK with pH modulators (Pentagastrin or Famotidine pre-treatment)
# Type: in vivo
# Conditions: not given
# Source text: (§1) Example 16 is a prodrug of Example 1.
row,Effect of pH modulators on PO PK (pH dependent absorption),SMILES
1,mitigated the pH dependent absorption,"O=P(O)(O)NS(=O)(=O)c1cncc(-c2nnc(NCc3ccccn3)c3c(-c4ccccc4)cccc23)c1 [Example 16, 5-(5-Phenyl-4-(pyridin-2-ylmethylamino)phthalazin-1-yl)pyridin-3-ylsulfonylphosphoramidic acid]"

# System: not listed separately
# Experiment: In vivo rat PK evaluation of pro-drug cleavage to parent
# Conditions: all doses administered PO, parent = Example 1
# Source text: as §1
row,SMILES,Pro-drug cleavage to the respective parent compound
1,"O=P(O)(O)NS(=O)(=O)c1cncc(-c2nnc(NCc3ccccn3)c3c(-c4ccccc4)cccc23)c1 [Example 16, 5-(5-Phenyl-4-(pyridin-2-ylmethylamino)phthalazin-1-yl)pyridin-3-ylsulfonylphosphoramidic acid]",Pro-drug cleavage to the respective parent compound was demonstrated

# Target: T1, human KV 1.5 (Homo sapiens, UniProt P22460)
# T1 construct: expressed in transfected cells; host or cells: mammalian L-929 cells (mouse fibroblast line)
# Experiment: Block of IKur current in patch clamped L-929 cells expressing human Kv1.5
# Type: cell-based
# Conditions: L929, 0.3 μM; patch clamped mammalian L-929 cells stably expressing human Kv1.5 (IKur); read-out: KV1_5% Inh L929 @0.3 μM
# Source text: 1. Synders, D. J.; et al., “A rapidly activating and slowly inactivating potassium channel cloned from human heart: functional analysis after stable mammalian cell culture expression”, J. Gen. Physiol., 101:513-543 (1993). […]
# T1 sequence (P22460 whole entry): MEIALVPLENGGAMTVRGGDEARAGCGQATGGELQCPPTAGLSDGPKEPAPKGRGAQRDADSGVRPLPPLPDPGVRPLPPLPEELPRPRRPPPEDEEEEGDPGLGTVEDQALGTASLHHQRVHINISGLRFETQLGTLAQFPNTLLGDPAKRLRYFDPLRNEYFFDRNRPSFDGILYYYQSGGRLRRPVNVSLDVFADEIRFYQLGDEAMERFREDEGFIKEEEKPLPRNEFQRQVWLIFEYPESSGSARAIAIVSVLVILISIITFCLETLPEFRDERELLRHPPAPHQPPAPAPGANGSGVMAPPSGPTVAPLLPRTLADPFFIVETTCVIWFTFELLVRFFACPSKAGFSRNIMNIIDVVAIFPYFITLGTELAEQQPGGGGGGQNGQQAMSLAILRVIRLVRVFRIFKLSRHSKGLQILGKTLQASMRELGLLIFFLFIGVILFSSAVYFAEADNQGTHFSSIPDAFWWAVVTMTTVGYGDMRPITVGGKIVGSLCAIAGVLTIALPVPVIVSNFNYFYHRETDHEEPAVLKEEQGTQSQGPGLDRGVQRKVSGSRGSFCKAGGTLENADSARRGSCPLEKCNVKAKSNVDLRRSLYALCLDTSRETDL
row,inhibition at 0.3 µM [%],SMILES
1,53.2,"NS(=O)(=O)c1cncc(-c2nnc(NCc3cccc(F)c3)c3c(-c4ccccc4)cccc23)c1 [Example 32, 5-(4-((3-Fluorobenzyl)amino)-5-phenylphthalazin-1-yl)pyridine-3-sulfonamide]"
2,93.5,"NS(=O)(=O)c1cncc(-c2nnc(NC[C@H](O)c3ccccc3)c3c(-c4ccccc4)cccc23)c1 [Example 41, (R)-5-(4-((2-Hydroxy-2-phenylethyl)amino)-5-phenylphthalazin-1-yl)pyridine-3-sulfonamide]"
3,71.1,"CC(C)OCCNC(=O)c1cncc(-c2nnc(NCc3ccccn3)c3c(-c4ccccc4)cccc23)c1 [Example 48, N-(2-Isopropoxyethyl)-5-(5-phenyl-4-((pyridin-2-ylmethyl)amino)phthalazin-1-yl)nicotinamide]"
4,93.9,O=C(N[C@H]1CCC[C@@H]1OCc1ccccc1)c1cncc(-c2nnc(NCc3ccccn3)c3c(-c4ccccc4)cccc23)c1 [Example 49]
5,51.1,"COCCNC(=O)c1cncc(-c2nnc(NCc3ccccn3)c3c(-c4ccccc4)cccc23)c1 [Example 46, N-(2-Methoxyethyl)-5-(5-phenyl-4-((pyridin-2-ylmethyl)amino)phthalazin-1-yl)nicotinamide]"

# Second part, the compound before the results:
row,SMILES,inhibition at 0.3 µM [%]
1,"NC(=O)c1cncc(-c2nnc(NCc3ccccn3)c3c(-c4ccccc4)cccc23)c1 [Example 5, 5-(5-Phenyl-4-(pyridin-2-ylmethylamino)phthalazin-1-yl)nicotinamide]",76
2,"CC(C)CC(=O)Nc1cncc(-c2nnc(NCc3ccccc3)c3c(-c4ccccc4)cccc23)c1 [Example 22, N-(5-(4-(Benzyl-amino)-5-phenylphthalazin-1-yl)pyridin-3-yl)-3-methylbutanamide]",91.5
3,"O=C(Nc1cncc(-c2nnc(NCc3ccccc3)c3c(-c4ccccc4)cccc23)c1)OCC(F)(F)F [Example 27, 2,2,2-Trifluoroethyl (5-(4-(benzylamino)-5-phenylphthalazin-1-yl)pyridin-3-yl)carbamate]",78
